# Results from ChEMBL document CHEMBL2150933 (J Med Chem, 2012).
# The source made the active and inactive calls. The rule behind the calls is not given here.
# Legend:
# [1] = test system: ACHN; assay: Cytotoxicity against human ACHN cells after 48 hrs by SRB assay; assay type: functional
# [2] = test system: SK-MEL-2; assay: Antitumor activity against human SK-MEL-2 cells xenografted in athymic nu/nu Harlan mouse assessed as tumor growth inhibition at 20 mg/kg, iv administered Q3D for 10 days relative to control; assay type: functional, organism-based; set-up: dose 20 mg/kg
# [3] = test system: T47D; assay: Cytotoxicity against human T47D cells after 48 hrs by SRB assay; assay type: functional
# [4] = test system: SK-MEL-28; assay: Cytotoxicity against human SK-MEL-28 cells after 48 hrs by SRB assay; assay type: functional; details: SK-MEL-28, 48 h
# [5] = test system: OVCAR-3; assay: Cytotoxicity against human OVCAR3 cells after 48 hrs by SRB assay; assay type: functional; details: OVCAR-3, 48 h
# [6] = Plasma concentration in CD1 mouse at 18 mg/kg, iv administered as single dose measured after 5 mins; assay type: ADME, organism-based; set-up: dose 18 mg/kg, route intravenous
# [7] = test system: Mus musculus; assay: Toxicity in athymic nu/nu Harlan mouse xenografted with human SK-MEL-2 cells assessed as adverse reactions at 10 mg/kg, iv administered Q2D for 10 days relative to control; assay type: organism-based; set-up: dose 10 mg/kg, route intravenous; details: in vivo, 240 h
# [8] = test system: Mus musculus; assay: Toxicity in athymic nu/nu Harlan mouse xenografted with human SK-MEL-2 cells assessed as change in body weight at 20 mg/kg, iv administered Q3D for 10 days relative to control; assay type: organism-based; set-up: dose 20 mg/kg, route intravenous; details: in vivo, 240 h
# [9] = test system: HCC 2998; assay: Cytotoxicity against human HCC2998 cells after 48 hrs by SRB assay; assay type: functional; details: HCC 2998, 48 h
# [10] = test system: Mus musculus; assay: Toxicity in athymic nu/nu Harlan mouse xenografted with human SK-MEL-2 cells assessed as change in body weight at 10 mg/kg, iv administered Q2D for 10 days relative to control; assay type: organism-based; set-up: dose 10 mg/kg, route intravenous; details: in vivo, 240 h
# [11] = test system: OVCAR-8; assay: Cytotoxicity against human OVCAR8 cells after 48 hrs by SRB assay; assay type: functional; details: OVCAR-8, 48 h, read-out: pGI50 (converted)
# [12] = test system: SF-295; assay: Cytotoxicity against human SF295 cells after 48 hrs by SRB assay; assay type: functional; details: SF-295, 48 h, read-out: pGI50 (converted)
# [13] = test system: Mus musculus; assay: Toxicity in athymic nu/nu Harlan mouse xenografted with human COLO205 cells assessed as mortality at 10 mg/kg, iv administered Q2D for 10 days relative to control; assay type: organism-based, COLO 205; set-up: dose 10 mg/kg, route intravenous; details: in vivo, 240 h
# [14] = test system: Malme-3M; assay: Cytotoxicity against human MALME-3M cells after 48 hrs by SRB assay; assay type: functional
# [15] = test system: Mus musculus; assay: Toxicity in athymic nu/nu Harlan mouse xenografted with human COLO205 cells assessed as change in body weight at 10 mg/kg, iv administered Q2D for 10 days relative to control; assay type: organism-based, COLO 205; set-up: dose 10 mg/kg, route intravenous; details: in vivo, 240 h
# [16] = test system: SK-MEL-5; assay: Cytotoxicity against human SK-MEL-5 cells after 48 hrs by SRB assay; assay type: functional; details: SK-MEL-5, 48 h
# [17] = test system: BXPC-3; assay: Cytotoxicity against human BxPC3 cells after 72 hrs by MTT assay; assay type: functional; details: BXPC-3, 72 h
# [18] = test system: NCI-H226; assay: Cytotoxicity against human NCI-H226 cells after 48 hrs by SRB assay; assay type: functional; details: NCI-H226, 48 h
# [19] = test system: DU-145; assay: Cytotoxicity against human DU145 cells after 48 hrs by SRB assay; assay type: functional; details: DU-145, 48 h
# [20] = test system: SNB-75; assay: Cytotoxicity against human SNB75 cells after 48 hrs by SRB assay; assay type: functional; details: SNB-75, 48 h
# [21] = test system: A549; assay: Cytotoxicity against human A549 cells after 72 hrs by MTT assay; assay type: functional; details: A549, 72 h
# [22] = test system: HL-60; assay: Cytotoxicity against human HL60 cells after 48 hrs by SRB assay; assay type: functional; details: HL-60, 48 h
# [23] = test system: NCI-H522; assay: Cytotoxicity against human NCI-H522 cells after 48 hrs by SRB assay; assay type: functional; details: NCI-H522, 48 h
# [24] = test system: Mus musculus; assay: Toxicity in athymic nu/nu Harlan mouse xenografted with human SK-MEL-2 cells assessed as mortality at 10 mg/kg, iv administered Q2D for 10 days relative to control; assay type: organism-based; set-up: dose 10 mg/kg, route intravenous; details: in vivo, 240 h
# [25] = test system: EKVX; assay: Cytotoxicity against human EKVX cells after 48 hrs by SRB assay; assay type: functional
# [26] = test system: MDA-MB-435; assay: Cytotoxicity against human MDA-MB-435 cells after 48 hrs by SRB assay; assay type: functional; details: MDA-MB-435, 48 h
# [27] = test system: SK-MEL-2; assay: Cytotoxicity against human SK-MEL-2 cells after 48 hrs by SRB assay; assay type: functional; details: SK-MEL-2, 48 h
# [28] = test system: HOP-92; assay: Cytotoxicity against human HOP92 cells after 48 hrs by SRB assay; assay type: functional; details: HOP-92, 48 h
# [29] = test system: Mus musculus; assay: Toxicity in athymic nu/nu Harlan mouse xenografted with human SK-MEL-2 cells assessed as adverse reactions at 20 mg/kg, iv administered Q3D for 10 days relative to control; assay type: organism-based; set-up: dose 20 mg/kg, route intravenous; details: in vivo, 240 h
# [30] = test system: SN12C; assay: Cytotoxicity against human SN12C cells after 48 hrs by SRB assay; assay type: functional
# [31] = test system: Mus musculus; assay: Toxicity in athymic nu/nu Harlan mouse xenografted with human COLO205 cells assessed as adverse reactions at 10 mg/kg, iv administered Q2D for 10 days relative to control; assay type: organism-based, COLO 205; set-up: dose 10 mg/kg, route intravenous; details: in vivo, 240 h
# [32] = test system: COLO 205; assay: Cytotoxicity against human COLO205 cells after 72 hrs by MTT assay; assay type: functional; details: COLO 205, 72 h
# [33] = test system: MDA-MB-468; assay: Cytotoxicity against human MDA-MB-468 cells after 48 hrs by SRB assay; assay type: functional; details: MDA-MB-468, 48 h
# [34] = test system: COLO 205; assay: Antitumor activity against human COLO205 cells xenografted in athymic nu/nu Harlan mouse assessed as tumor growth inhibition at 10 mg/kg, iv administered Q2D for 10 days relative to control; assay type: functional, organism-based; set-up: dose 10 mg/kg
# [35] = test system: RPMI-8226; assay: Cytotoxicity against human RPMI8226 cells after 48 hrs by SRB assay; assay type: functional; details: RPMI-8226, 48 h
# [36] = test system: NCI-H23; assay: Cytotoxicity against human NCI-H23 cells after 48 hrs by SRB assay; assay type: functional; details: NCI-H23, 48 h
# [37] = Cytotoxicity against human NCI-ADR-RES cells after 48 hrs by SRB assay; assay type: functional
# [38] = test system: Mus musculus; assay: Toxicity in athymic nu/nu Harlan mouse xenografted with human COLO205 cells assessed as adverse reactions at 20 mg/kg, iv administered Q3D for 10 days relative to control; assay type: organism-based, COLO 205; set-up: dose 20 mg/kg, route intravenous; details: in vivo, 240 h
# [39] = test system: KM12; assay: Cytotoxicity against human KM12 cells after 48 hrs by SRB assay; assay type: functional; details: KM12, 48 h
# [40] = test system: MCF7; assay: Cytotoxicity against human MCF7 cells after 48 hrs by SRB assay; assay type: functional; details: MCF7, 48 h
# [41] = test system: PC-3; assay: Cytotoxicity against human PC3 cells after 48 hrs by SRB assay; assay type: functional; details: PC-3, 48 h
# [42] = Cytotoxicity against human 786-O cells after 48 hrs by SRB assay; assay type: functional; details: 786-0, 48 h
# [43] = test system: BT-549; assay: Cytotoxicity against human BT549 cells after 48 hrs by SRB assay; assay type: functional; details: BT-549, 48 h
# [44] = test system: SW-620; assay: Cytotoxicity against human SW620 cells after 48 hrs by SRB assay; assay type: functional; details: SW-620, 48 h
# [45] = test system: U-251; assay: Cytotoxicity against human U251 cells after 48 hrs by SRB assay; assay type: functional; details: U-251, 48 h, read-out: pGI50 (converted)
compound,measurement,setting,value
CO[C@@H]([C@@H]1Cc2cc3cc(O[C@H]4C[C@@H](O[C@H]5C[C@@H](O)[C@H](O)[C@@H](C)O5)[C@H](O)[C@@H](C)O4)c(C)c(O)c3c(O)c2C(=O)[C@H]1O[C@H]1C[C@@H](O[C@H]2C[C@@H](O[C@H]3C[C@H](O)[C@H](O)[C@@H](C)O3)[C@H](O)[C@@H](C)O2)[C@H](O)[C@@H](C)O1)[C@@H](O)C(C)=O,GI50,[1],34.7 nM
same,TGI,[2],Active
same,GI50,[3],25.7 nM
same,GI50,[4],18.6 nM
same,GI50,[5],19.5 nM
same,concentration at 5 min,[6],28 µM
same,Activity,[7],Non-toxic
same,Activity,[8],Non-toxic
same,GI50,[9],16.2 nM
same,Activity,[10],Non-toxic
same,GI50,[11],35.5 nM
same,GI50,[12],19.9 nM
same,Activity,[13],Non-toxic
same,GI50,[14],19.5 nM
same,Activity,[15],Non-toxic
same,GI50,[16]; read-out: GI50,16 nM
same,GI50,[16]; read-out: pGI50 (converted),17 nM
same,GI50,[17],300 nM
same,GI50,[18],20.4 nM
same,GI50,[19],20.4 nM
same,GI50,[20],32.4 nM
same,GI50,[21],300 nM
same,GI50,[22],24 nM
same,GI50,[23],17.8 nM
same,Activity,[24],Non-toxic
same,GI50,[25],85.1 nM
same,GI50,[26],23.4 nM
same,GI50,[27],27.5 nM
same,GI50,[28],26.9 nM
same,Activity,[29],Non-toxic
same,GI50,[30],20.9 nM
same,Activity,[31],Non-toxic
same,GI50,[32],300 nM
same,GI50,[33],33.9 nM
same,TGI,[34],Active
same,GI50,[35],16.2 nM
same,GI50,[36],22.4 nM
same,GI50,[37],50100 nM
same,Activity,[38],Non-toxic
same,GI50,[39],17.8 nM
same,GI50,[40],13.8 nM
same,GI50,[41],21.4 nM
same,GI50,[42],32.4 nM
same,GI50,[43],18.2 nM
same,GI50,[44],22.4 nM
same,GI50,[45],18.6 nM
